Structures can show the parent of a compound that is named as a salt. Where two headings read alike, the source gives them in different places.
Tests used:
[1] = biological target: T1, PI3Kalpha (PI3Ka) (Homo sapiens, UniProt P42336); test: kinobeads assay, PI3Kalpha; assay type: binding
T1 construct: endogenous in cells; host or cells: cell lysate
Method: (§1) The kinobeads assay was performed as a competitive binding assay in which test compounds were added directly into a cell lysate. Test compounds (at various concentrations) and the affinity matrix (beads with immobilized phenylmorpholin-chromen ligand) were added to cell lysate aliquots and allowed to bind to the proteins contained in the lysate sample. After the incubation time the beads with captured proteins were separated from the lysate. Bound proteins were then eluted and the presence of kinases was detected and quantified using a multiplexed immunodetection format. Dose response curves for individual kinases were generated and IC50 values calculated.
(§2) The effect of the compounds on the kinases PI3Kalpha (PI3Ka), PI3 Kbeta (PI3 Kb) and PI3 Kgamma (PI3 Kg) were tested in the kinobeads assay as described (WO-A 2009/098021).

[2] = biological target: T2, PI3 Kgamma (PI3 Kg) (Homo sapiens, UniProt P48736); test: kinobeads assay, PI3Kgamma; assay type: binding
T2 construct: endogenous in cells; host or cells: cell lysate
T2 sequence (P48736 whole entry): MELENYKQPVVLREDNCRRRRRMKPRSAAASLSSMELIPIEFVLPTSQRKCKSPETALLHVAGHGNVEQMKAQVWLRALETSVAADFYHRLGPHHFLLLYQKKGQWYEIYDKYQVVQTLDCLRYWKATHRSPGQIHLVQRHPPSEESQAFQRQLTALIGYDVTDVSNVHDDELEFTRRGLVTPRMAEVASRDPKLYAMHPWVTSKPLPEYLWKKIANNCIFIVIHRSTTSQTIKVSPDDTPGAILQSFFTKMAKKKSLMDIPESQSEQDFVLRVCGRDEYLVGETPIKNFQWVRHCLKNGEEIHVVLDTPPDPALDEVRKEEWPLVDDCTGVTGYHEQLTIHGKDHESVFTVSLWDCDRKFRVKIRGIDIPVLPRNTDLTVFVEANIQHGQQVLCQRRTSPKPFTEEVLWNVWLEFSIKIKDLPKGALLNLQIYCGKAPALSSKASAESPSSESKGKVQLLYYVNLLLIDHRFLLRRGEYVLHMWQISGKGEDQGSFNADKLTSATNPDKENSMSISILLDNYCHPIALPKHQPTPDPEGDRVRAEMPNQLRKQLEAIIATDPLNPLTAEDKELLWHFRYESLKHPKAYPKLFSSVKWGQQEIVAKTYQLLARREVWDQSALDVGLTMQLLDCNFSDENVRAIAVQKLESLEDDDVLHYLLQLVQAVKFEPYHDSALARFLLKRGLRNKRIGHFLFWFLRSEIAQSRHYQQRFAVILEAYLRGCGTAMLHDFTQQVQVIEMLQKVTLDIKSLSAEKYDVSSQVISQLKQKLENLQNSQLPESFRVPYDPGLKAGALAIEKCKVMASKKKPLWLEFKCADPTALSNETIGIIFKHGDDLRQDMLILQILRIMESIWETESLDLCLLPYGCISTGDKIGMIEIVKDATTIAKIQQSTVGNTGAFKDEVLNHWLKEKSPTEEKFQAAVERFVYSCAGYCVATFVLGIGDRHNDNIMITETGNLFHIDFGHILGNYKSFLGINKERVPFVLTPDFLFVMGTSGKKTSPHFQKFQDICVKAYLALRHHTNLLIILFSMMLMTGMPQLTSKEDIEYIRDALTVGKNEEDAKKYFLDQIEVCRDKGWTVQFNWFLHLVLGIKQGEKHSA
Method: as §1, §2

[3] = biological target: T3, PI3 Kbeta (PI3 Kb) (Homo sapiens, UniProt P42338); test: kinobeads assay, PI3Kbeta; assay type: binding
T3 construct: endogenous in cells; host or cells: cell lysate
T3 sequence (P42338 whole entry): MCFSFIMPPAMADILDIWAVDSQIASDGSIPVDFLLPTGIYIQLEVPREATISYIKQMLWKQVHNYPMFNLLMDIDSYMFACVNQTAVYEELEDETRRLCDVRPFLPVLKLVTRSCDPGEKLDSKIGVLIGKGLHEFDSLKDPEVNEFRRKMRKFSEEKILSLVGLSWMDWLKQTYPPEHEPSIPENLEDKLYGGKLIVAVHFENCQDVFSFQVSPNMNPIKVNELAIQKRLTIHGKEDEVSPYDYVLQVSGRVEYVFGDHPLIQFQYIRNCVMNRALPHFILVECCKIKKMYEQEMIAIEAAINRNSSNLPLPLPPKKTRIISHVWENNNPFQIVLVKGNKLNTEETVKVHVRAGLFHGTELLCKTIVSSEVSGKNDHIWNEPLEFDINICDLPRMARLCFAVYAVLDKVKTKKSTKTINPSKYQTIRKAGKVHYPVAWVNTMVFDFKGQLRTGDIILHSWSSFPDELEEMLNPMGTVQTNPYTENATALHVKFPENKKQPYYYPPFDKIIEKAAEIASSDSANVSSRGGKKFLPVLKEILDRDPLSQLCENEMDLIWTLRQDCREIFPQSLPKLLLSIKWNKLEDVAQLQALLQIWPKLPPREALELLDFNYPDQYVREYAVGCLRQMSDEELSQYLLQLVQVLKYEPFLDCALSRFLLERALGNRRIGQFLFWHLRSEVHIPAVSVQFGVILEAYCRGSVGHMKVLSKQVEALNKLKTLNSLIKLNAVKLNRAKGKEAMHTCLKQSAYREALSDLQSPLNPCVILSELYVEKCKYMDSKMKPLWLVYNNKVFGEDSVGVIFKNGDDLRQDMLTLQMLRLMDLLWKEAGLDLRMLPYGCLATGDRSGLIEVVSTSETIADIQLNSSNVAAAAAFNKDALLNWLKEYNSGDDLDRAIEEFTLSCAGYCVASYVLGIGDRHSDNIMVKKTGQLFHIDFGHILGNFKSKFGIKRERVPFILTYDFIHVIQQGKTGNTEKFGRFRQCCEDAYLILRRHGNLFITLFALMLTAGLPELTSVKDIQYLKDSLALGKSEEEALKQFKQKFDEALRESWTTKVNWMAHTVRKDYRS
T3 sequence (P27986 whole entry partner): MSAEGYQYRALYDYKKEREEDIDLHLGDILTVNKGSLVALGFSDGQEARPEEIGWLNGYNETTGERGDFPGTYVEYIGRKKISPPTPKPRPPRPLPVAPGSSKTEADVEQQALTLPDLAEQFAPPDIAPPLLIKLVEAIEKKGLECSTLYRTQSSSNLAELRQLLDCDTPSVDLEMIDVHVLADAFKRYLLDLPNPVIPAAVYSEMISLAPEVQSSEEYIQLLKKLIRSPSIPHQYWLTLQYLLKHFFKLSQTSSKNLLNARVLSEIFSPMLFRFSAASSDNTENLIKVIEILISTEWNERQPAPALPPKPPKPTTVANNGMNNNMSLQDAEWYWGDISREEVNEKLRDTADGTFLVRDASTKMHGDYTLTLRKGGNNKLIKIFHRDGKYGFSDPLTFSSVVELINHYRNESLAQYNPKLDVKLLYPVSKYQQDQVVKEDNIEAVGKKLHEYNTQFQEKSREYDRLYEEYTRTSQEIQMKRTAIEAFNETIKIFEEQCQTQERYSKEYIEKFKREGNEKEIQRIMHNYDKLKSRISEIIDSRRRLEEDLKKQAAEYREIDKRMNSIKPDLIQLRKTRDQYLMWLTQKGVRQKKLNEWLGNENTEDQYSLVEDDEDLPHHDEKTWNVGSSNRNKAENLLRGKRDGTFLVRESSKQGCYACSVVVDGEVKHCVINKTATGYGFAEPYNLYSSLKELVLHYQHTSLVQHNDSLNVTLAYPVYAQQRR
Method: as §1, §2

[4] = biological target: T4, mTOR (Homo sapiens, UniProt P42345); test: mTOR kinobeads assay (competitive binding in Jurkat cell lysate, immunodetection)
T4 construct: endogenous in cells; host or cells: Jurkat, clone E6-1 (ATCC TIB-152) cell lysate
Method: The compounds of the present invention as described were tested in the mTOR kinobeads assay as described below. […] After the incubation time the beads with captured proteins were separated from the lysate. Bound proteins were then eluted and the presence of mTOR, PI3K delta (PI3 Kd) and DNA-dependent protein kinase (DNA-PK) was detected and quantified using a specific antibody in a dot blot procedure and the Odyssey infrared detection system.
as §1
(§3) 5×DP buffer: 250 mM Tris-HCl pH 7.4, 25% Glycerol, 7.5 mM MgCl2, 750 mM NaCl, 5 mM Na3VO4, filter the 5×-lysis buffer through 0.22 μm filter and store in aliquots at −80° C. The 5×DP buffer is diluted to 1×DP buffer containing 1 mM DTT and 25 mM NaF.
(§4) Stock solutions of test compounds were prepared in DMSO. In a 96 well plate 30 μl solution of diluted test compounds at 5 mM in DMSO were prepared. Starting with this solution a 1:3 dilution series (9 steps) was prepared. For control experiments (no test compound) a buffer containing 2% DMSO was used.
Jurkat cells were homogenized in a Potter S homogenizer in lysis buffer: 50 mM Tris-HCl, 0.8% NP40, 5% glycerol, 150 mM NaCl, 1.5 mM MgCl2, 25 mM NaF, 1 mM sodium vanadate, 1 mM DTT, pH 7.5. […] The material was dounced 10 times using a mechanized POTTER S, transferred to 50 ml falcon tubes, incubated for 30 minutes on ice and spun down for 10 min at 20,000 g at 4° C. (10,000 rpm in Sorvall SLA600, precooled). […] (33.500 rpm in Ti50.2, precooled). The supernatant was transferred again to a fresh 50 ml falcon tube, the protein concentration was determined by a Bradford assay (BioRad) and samples containing 50 mg of protein per aliquot were prepared. The samples were immediately used for experiments or frozen in liquid nitrogen and stored frozen at −80° C.
Jurkat cell lysate (approximately 50 mg protein per plate) was thawed in a water bath at room temperature and then kept on ice. […] The diluted cell lysate was stored on ice.
Plates were sealed and incubated for two hours in a cold room on a Thermoxer with shaking (750 rpm). Afterwards the plate was washed twice with 230 μl washing buffer (1×DP 0.4% NP40). […] The eluate was frozen quickly at −80° C. and stored at −20° C.
The kinases in the eluates were detected and quantified by spotting on Nitrocellulose membranes and using a first antibody directed against the kinase of interest and a fluorescently labeled secondary antibody (anti-mouse or anti-rabbit IRDye™ antibodies from Rockland).
Afterwards the membrane was washed three times for 10 minutes with PBS buffer containing 0.1% Tween 20 at room temperature. […] Afterwards the membrane was washed three times for 10 minutes each with 1×PBS buffer containing 0.1% Tween 20 at room temperature. Then the membrane was rinsed once with PBS buffer to remove residual Tween 20. The membrane was kept in PBS buffer at 4° C. and then scanned with the Odyssey instrument. Fluorescence signals were recorded and analysed according to the instructions of the manufacturer.

[5] = biological target: T5, DNA-dependent protein kinase (DNA-PK) (Homo sapiens, UniProt P78527); test: kinobeads assay, DNA-PK; assay type: binding
T5 construct: endogenous in cells; host or cells: Jurkat, clone E6-1 (ATCC TIB-152) cell lysate
Method: (§5) The compounds of the present invention as described were tested in the mTOR kinobeads assay as described below. Briefly, test compounds (at various concentrations) and the affinity matrix with the immobilized phenylmorpholin-chromen ligand (8-(4-aminomethyl-phenyl)-2-morpholin-4-yl-chromen-4-one) were added to cell lysate aliquots and allowed to bind to the proteins in the lysate sample. After the incubation time the beads with captured proteins were separated from the lysate. Bound proteins were then eluted and the presence of mTOR, PI3K delta (PI3 Kd) and DNA-dependent protein kinase (DNA-PK) was detected and quantified using a specific antibody in a dot blot procedure and the Odyssey infrared detection system. Kinobeads assays for PI3K (WO-A 2008/015013) and for kinase selectivity profiling (WO 2006/134056) have been previously described.
as §1
(§6) The affinity matrix (beads with immobilized phenylmorpholin-chromen ligand) was washed two times with 15 ml of 1×DP buffer containing 0.2% NP40 (IGEPAL® CA-630, Sigma, #13021) and then resupended in 5.5 ml of 1×DP buffer containing 0.2% NP40 (10% beads slurry).
as §3
as §4, with “used. Compound CZC00018052 served as a positive control (PI-103; Calbiochem catalogue number 528100).” for “used.”
(§7) Jurkat cells (ATCC catalogue number TIB-152 Jurkat, clone E6-1) were grown in 1 liter Spinner flasks (Integra Biosciences, #182101) in suspension in RPMI 1640 medium (Invitrogen, #21875-034) supplemented with 10% Fetal Bovine Serum (Invitrogen) at a density between 0.15×10^6 and 1.2×10^6 cells/ml. Cells were harvested by centrifugation, washed once with 1×PBS buffer (Invitrogen, #14190-094) and cell pellets were frozen in liquid nitrogen and subsequently stored at −80° C.
(§8) Jurkat cells were homogenized in a Potter S homogenizer in lysis buffer: 50 mM Tris-HCl, 0.8% NP40, 5% glycerol, 150 mM NaCl, 1.5 mM MgCl2, 25 mM NaF, 1 mM sodium vanadate, 1 mM DTT, pH 7.5. One complete EDTA-free tablet (protease inhibitor cocktail, Roche Diagnostics, 1873580) per 25 ml buffer was added. The material was dounced 10 times using a mechanized POTTER S, transferred to 50 ml falcon tubes, incubated for 30 minutes on ice and spun down for 10 min at 20,000 g at 4° C. (10,000 rpm in Sorvall SLA600, precooled). The supernatant was transferred to an ultracentrifuge (UZ)-polycarbonate tube (Beckmann, 355654) and spun for 1 hour at 100.000 g at 4° C. (33.500 rpm in Ti50.2, precooled). The supernatant was transferred again to a fresh 50 ml falcon tube, the protein concentration was determined by a Bradford assay (BioRad) and samples containing 50 mg of protein per aliquot were prepared. The samples were immediately used for experiments or frozen in liquid nitrogen and stored frozen at −80° C. […]

[6] = biological target: T6, PI3K delta (PI3 Kd) (Homo sapiens, UniProt O00329); test: kinobeads assay, PI3K delta; assay type: binding
T6 construct: endogenous in cells; host or cells: Jurkat, clone E6-1 (ATCC TIB-152) cell lysate
T6 sequence (O00329 whole entry): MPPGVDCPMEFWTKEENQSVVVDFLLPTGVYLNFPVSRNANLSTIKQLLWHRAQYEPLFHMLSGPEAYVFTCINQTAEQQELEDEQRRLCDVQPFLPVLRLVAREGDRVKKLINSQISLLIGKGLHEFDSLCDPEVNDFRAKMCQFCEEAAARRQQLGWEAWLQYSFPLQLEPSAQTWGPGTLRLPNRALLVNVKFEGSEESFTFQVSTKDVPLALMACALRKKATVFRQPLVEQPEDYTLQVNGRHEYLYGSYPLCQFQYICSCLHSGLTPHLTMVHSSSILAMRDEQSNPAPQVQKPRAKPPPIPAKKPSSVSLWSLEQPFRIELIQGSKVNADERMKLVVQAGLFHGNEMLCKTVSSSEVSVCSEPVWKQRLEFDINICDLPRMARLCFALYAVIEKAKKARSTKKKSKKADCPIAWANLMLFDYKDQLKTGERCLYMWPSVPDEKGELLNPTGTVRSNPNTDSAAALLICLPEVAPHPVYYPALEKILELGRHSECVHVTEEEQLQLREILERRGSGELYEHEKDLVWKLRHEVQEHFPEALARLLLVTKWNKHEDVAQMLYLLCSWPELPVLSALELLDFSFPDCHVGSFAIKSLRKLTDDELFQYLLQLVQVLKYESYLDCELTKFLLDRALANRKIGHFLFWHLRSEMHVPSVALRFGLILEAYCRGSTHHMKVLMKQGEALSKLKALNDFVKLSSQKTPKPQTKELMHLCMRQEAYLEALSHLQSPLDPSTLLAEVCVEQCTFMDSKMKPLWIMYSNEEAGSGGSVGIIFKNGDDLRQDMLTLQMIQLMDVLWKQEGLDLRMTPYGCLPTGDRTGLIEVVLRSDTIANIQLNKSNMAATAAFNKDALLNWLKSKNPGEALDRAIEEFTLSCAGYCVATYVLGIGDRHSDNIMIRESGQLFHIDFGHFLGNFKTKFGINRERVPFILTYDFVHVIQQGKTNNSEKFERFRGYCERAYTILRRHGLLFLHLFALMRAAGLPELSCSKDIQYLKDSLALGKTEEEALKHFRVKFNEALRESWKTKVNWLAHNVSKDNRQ
T6 sequence (P27986 whole entry partner): as the sequence (P27986 whole entry partner) above
Method: as §5, §1, §6, §3
as §4, with “used. Compound CZC00018052 served as a positive control (PI-103; Calbiochem catalogue number 528100).” for “used.”
as §7, §8

[7] = kinobeads assay, Table 6, read-out: Inhibition values (IC50) PI3Kg
[8] = kinobeads assay, Table 6, read-out: Inhibition values (IC50) PI3Kb
[9] = kinobeads assay, Table 6, read-out: Inhibition values (IC50) mTOR
[10] = kinobeads assay, Table 6, read-out: Inhibition values (IC50) DNAPK
[11] = kinobeads assay, Table 6, read-out: Inhibition values (IC50) PI3Kd
[12] = Further Kinobeads Data, read-out: PI3Kg
[13] = Further Kinobeads Data, read-out: PI3Kb
[14] = Further Kinobeads Data, read-out: mTor
[15] = Further Kinobeads Data, read-out: DNAPK
[16] = Further Kinobeads Data, read-out: PI3Kd

T1 sequence (P42336 whole entry): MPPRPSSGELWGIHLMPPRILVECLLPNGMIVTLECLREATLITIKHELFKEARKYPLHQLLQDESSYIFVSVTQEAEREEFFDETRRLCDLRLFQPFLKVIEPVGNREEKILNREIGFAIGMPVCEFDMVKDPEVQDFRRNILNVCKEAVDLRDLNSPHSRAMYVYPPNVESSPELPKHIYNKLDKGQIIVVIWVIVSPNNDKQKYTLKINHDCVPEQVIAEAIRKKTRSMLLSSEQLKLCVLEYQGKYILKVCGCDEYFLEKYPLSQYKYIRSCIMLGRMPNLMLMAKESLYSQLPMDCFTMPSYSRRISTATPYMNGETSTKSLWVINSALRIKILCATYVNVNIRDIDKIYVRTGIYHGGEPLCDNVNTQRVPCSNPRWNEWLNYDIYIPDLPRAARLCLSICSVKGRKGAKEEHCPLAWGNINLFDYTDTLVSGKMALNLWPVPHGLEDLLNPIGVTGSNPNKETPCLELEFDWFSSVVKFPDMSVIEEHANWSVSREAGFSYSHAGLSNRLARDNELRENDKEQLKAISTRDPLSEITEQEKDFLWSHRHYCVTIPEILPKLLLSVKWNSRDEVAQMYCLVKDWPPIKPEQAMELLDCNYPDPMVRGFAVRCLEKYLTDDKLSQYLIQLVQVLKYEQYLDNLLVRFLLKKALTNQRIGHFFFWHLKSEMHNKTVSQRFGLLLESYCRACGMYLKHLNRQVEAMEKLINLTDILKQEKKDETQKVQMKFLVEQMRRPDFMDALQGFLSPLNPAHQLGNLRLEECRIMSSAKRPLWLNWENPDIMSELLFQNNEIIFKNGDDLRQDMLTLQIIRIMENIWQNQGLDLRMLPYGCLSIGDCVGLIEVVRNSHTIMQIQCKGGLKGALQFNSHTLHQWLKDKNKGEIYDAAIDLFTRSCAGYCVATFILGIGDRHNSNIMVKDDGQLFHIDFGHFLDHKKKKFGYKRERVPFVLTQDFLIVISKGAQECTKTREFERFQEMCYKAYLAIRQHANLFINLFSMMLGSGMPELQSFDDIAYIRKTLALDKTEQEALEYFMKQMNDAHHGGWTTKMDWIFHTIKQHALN
T1 sequence (P27986 whole entry partner): as the sequence (P27986 whole entry partner) above

| SMILES | Inhibition values (IC50) PI3Ka ([1]; kinobeads assay, Table 6) | IC50 [2, 7] [µM] | IC50 [3, 8] [µM] | IC50 [4, 9] [µM] | IC50 [5, 10] [µM] | IC50 [6, 11] [µM] | PI3Ka ([1]; Further Kinobeads Data) | IC50 [2, 12] [µM] | IC50 [3, 13] [µM] | IC50 [4, 14] [µM] | IC50 [5, 15] [µM] | IC50 [6, 16] [µM] | IC50 ([1]; kinobeads assay, Table 6, read-out: Inhibition values (IC50) PI3Ka) [µM] | IC50 ([1]; Further Kinobeads Data, read-out: PI3Ka) [µM] |
| --- | --- | --- | --- | --- | --- | --- | --- | --- | --- | --- | --- | --- | --- | --- |
| CCOC(=O)N1Cc2nc(-c3ccc(NC(=O)NCC(N)=O)cc3)nc(N3CCOC[C@@H]3C)c2C1 [Example 114, (S)-ethyl 2-(4-(3-(2-amino-2-oxoethyl)ureido)phenyl)-4-(3-methylmorpholino)-5H-pyrrolo[3,4-d]pyrimidine-6(7H)-carboxylate] | B (B >0.1 μM < 1 μM) | 1 to 10 | 1 to 10 | 0.1 to 1 | > 10 | 0.1 to 1 |  |  |  |  |  |  |  |  |
| CCNC(=O)Nc1ccc(-c2nc3c(c(N4CCOCC4)n2)CNC3)c(F)c1 [Example 150, 1-Ethyl-3-(3-fluoro-4-(4-morpholino-6,7-dihydro-5H-pyrrolo[3,4-d]pyrimidin-2-yl)phenyl)urea hydrochloride] |  |  |  |  |  |  |  | > 10 | > 10 | < 0.1 | > 10 | > 10 |  | 1 to 10 |

Other lines, results leading:

| Inhibition values (IC50) PI3Ka ([1]; kinobeads assay, Table 6) | IC50 [2, 7] [µM] | IC50 [3, 8] [µM] | IC50 [4, 9] [µM] | IC50 [5, 10] [µM] | IC50 [6, 11] [µM] | PI3Ka ([1]; Further Kinobeads Data) | IC50 [2, 12] [µM] | IC50 [3, 13] [µM] | IC50 [4, 14] [µM] | IC50 [5, 15] [µM] | IC50 [6, 16] [µM] | IC50 ([1]; kinobeads assay, Table 6, read-out: Inhibition values (IC50) PI3Ka) [µM] | IC50 ([1]; Further Kinobeads Data, read-out: PI3Ka) [µM] | SMILES |
| --- | --- | --- | --- | --- | --- | --- | --- | --- | --- | --- | --- | --- | --- | --- |
|  |  |  |  |  |  | D (D >10 μM) | > 10 | > 10 | < 0.1 | > 10 | > 10 |  |  | CCNC(=O)Nc1ccc(-c2nc3c(c(N4CCOC[C@@H]4C)n2)CNC3)c(F)c1.Cl [Example 158, (S)-1-ethyl-3-(3-fluoro-4-(4-(3-methylmorpholino)-6,7-dihydro-5H-pyrrolo[3,4-d]pyrimidin-2-yl)phenyl)urea hydrochloride] |
|  | > 10 | 1 to 10 | < 0.1 | > 10 | 1 to 10 |  |  |  |  |  |  | 1 to 10 |  | C[C@H]1COCCN1c1nc(-c2ccc(NC(=O)NC3CC3)cc2)nc2c1CN(CC1CCNCC1)C2 [Example 130, (S)-1-cyclopropyl-3-(4-(4-(3-methylmorpholino)-6-(piperidin-4-ylmethyl)-6,7-dihydro-5H-pyrrolo[3,4-d]pyrimidin-2-yl)phenyl)urea] |
| D (D >10 μM) | > 10 | 1 to 10 | 0.1 to 1 | > 10 | > 10 |  |  |  |  |  |  |  |  | CCNC(=O)Nc1ccc(-c2nc3c(c(N4CCOC[C@@H]4C)n2)CN(C(=O)C2CCNCC2)C3)cc1F [Example 126, (S)-1-ethyl-3-(2-fluoro-4-(4-(3-methylmorpholino)-6-(piperidine-4-carbonyl)-6,7-dihydro-5H-pyrrolo[3,4-d]pyrimidin-2-yl)phenyl)urea] |
